Activity calls are given as the source filed them.
Columns and labels:
[1] = molecular target: T1, Corticotropin-releasing factor receptor 2/Corticotropin-releasing factor-binding protein (Homo sapiens, UniProt P24387+Q13324); test: Dose Response confirmation of uHTS hits for small molecule antagonists of the CRF-binding protein and CRF-R2 receptor complex.; type: functional; settings: read-out: IC50_Mean
T1 sequence (Q13324 whole entry): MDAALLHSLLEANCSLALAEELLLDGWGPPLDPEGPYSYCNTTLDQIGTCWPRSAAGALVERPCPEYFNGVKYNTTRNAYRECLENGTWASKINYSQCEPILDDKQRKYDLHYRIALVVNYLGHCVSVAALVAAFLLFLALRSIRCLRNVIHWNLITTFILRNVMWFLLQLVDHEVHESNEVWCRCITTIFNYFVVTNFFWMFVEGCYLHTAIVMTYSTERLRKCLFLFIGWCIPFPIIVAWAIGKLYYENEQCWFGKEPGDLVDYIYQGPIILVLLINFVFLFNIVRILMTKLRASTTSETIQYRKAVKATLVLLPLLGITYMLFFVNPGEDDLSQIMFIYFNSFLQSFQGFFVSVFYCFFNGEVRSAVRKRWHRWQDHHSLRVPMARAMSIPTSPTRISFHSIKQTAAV
T1 sequence (P24387 whole entry): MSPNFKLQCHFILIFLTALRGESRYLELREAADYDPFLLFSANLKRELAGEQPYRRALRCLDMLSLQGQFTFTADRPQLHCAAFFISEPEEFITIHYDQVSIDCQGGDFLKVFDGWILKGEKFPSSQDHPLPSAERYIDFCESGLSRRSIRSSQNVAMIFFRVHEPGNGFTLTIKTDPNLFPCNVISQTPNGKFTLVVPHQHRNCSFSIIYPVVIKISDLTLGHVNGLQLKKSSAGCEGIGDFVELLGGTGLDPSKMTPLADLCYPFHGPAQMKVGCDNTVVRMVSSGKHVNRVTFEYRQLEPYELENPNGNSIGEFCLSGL

[2] = molecular target: T1, Corticotropin-releasing factor receptor 2/Corticotropin-releasing factor-binding protein; test: activators of CRF receptor 2 with binding protein – uHTS hits, confirmation (AID 602473); type: functional; settings: read-out: EC50_Mean
[3] = CRF-BP/CRF-R2 complex antagonists, dose response, cell-based, uHTS hits, 384-well (AID 651639); type: functional, Homo sapiens; settings: read-out: IC50_Mean
Beta-galactosidase = Beta-galactosidase (Escherichia coli, UniProt Q8VNN2); test: Dose response counterscreen for EBI2 assay utilizing the enzyme, b-galactosidase.; type: functional
[4] = cytotoxicity in HPDE-C7 cells, cell-based, fluorescence, HTS (AID 430); type: functional; settings: Homo sapiens
Large T antigen = Large T antigen (Simian virus 40, UniProt P03070); type: functional, Betapolyomavirus macacae;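 note: Confirmatory-stage PubChem screen for compounds that inhibit SV40 T antigen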
[5] = cytotoxicity in KRAS-transformed pancreatic duct cells, primary screen, cell-based, fluorescence, HTS (AID 431); type: functional; settings: Homo sapiens;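 note: cell line used: HPDE-C7K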
[6] = molecular target: FAD-linked sulfhydryl oxidase ALR (Homo sapiens, UniProt P55789); test: inhibitors of human ALR sulfhydryl oxidase, dose response, biochemical, H2O2 detection, luminescence, cherry-pick (AID 493248)
[7] = molecular target: T2, Mannose-6-phosphate isomerase (Homo sapiens, UniProt P34949); test: human PMI inhibitors, high substrate, primary screen, biochemical, fluorescence intensity, high mannose 6-phosphate (AID 1220)
T2 sequence (P34949 whole entry): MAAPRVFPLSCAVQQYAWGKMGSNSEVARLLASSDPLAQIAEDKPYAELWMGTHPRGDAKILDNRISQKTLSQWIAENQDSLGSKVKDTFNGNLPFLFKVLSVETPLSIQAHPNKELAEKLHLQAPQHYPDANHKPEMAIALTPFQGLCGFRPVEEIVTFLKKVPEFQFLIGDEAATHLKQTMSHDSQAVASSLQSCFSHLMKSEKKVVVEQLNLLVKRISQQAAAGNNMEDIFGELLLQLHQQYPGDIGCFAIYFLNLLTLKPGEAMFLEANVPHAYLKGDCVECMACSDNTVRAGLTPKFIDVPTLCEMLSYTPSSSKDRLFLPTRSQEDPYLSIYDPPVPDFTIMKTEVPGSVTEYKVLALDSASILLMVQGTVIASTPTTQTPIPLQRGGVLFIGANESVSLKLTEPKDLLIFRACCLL

[8] = molecular target: Eukaryotic translation initiation factor 4E (Mus musculus, UniProt P63073); test: eIF4E–eIF4G protein interaction inhibitors, dose response, biochemical, TR-FRET (AID 855); type: functional;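 note: potency for disrupting eIF4E binding to eIF4GI seen as loss of FRET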
[9] = molecular target: T3, Endoribonuclease toxin MazF (Escherichia coli K-12, UniProt P0AE70); test: MazF toxin RNase activators, dose response, biochemical, fluorescence, single-stranded RNA substrate, uHTS hits (AID 588481); type: functional
T3 sequence (P0AE70 whole entry): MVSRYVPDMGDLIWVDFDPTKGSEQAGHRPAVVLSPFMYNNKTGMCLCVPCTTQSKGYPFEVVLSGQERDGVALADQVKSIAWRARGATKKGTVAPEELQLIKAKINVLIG

[10] = molecular target: T3, Endoribonuclease toxin MazF; test: fluorescent RNA oligo signal without MazF, dose response, counter-screen for MazEF activator project, biochemical, fluorescence, single-stranded RNase substrate (AID 588502); type: functional
[11] = Shn3 3'UTR reporter inhibitors, dose response, cell-based, Clone20 osteoblasts, firefly luciferase, cherry-picked (AID 624132); type: functional;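 note: firefly luciferase luminescence from reporter carrying the Shn3 3'UTR in osteoblasts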
[12] = HepG2 cell cytotoxicity, dose response, cytotoxicity control for Shn3 inhibitor project, CellTiter-Glo, cherry-picked (AID 624134); type: functional, cell-based
[13] = control 3'UTR Renilla luciferase suppression, dose response, counter-screen for Shn3 inhibitor project, cell-based, Clone20-Shn3RL, cherry-picked (AID 624133); type: functional
[14] = molecular target: T4, Hepatocyte nuclear factor 4-alpha (Homo sapiens, UniProt P41235); type: functional, cell-based;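 note: biochemical luminescence-based dose-response counterscreen measuring inhibition of HNF4 dimerization, run alongside a screen for blockers of ABHD5–perilipin-5 interaction; split luciferase complementation of HNF4 fusion proteins in cell lysate measuring dimerization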
T4 sequence (P41235 whole entry): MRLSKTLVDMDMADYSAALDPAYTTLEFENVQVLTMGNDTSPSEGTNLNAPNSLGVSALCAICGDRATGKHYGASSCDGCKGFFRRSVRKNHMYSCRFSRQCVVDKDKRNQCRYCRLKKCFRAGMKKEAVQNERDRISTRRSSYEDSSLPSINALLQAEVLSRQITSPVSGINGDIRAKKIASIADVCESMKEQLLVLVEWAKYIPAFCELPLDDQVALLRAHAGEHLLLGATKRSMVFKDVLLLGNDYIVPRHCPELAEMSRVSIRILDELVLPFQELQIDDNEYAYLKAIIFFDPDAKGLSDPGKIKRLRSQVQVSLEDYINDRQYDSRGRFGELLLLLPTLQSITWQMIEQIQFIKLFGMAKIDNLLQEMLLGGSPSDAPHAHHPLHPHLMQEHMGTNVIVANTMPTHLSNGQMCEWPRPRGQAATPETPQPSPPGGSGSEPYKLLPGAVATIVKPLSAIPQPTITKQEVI

Paired box protein Pax-8 = Paired box protein Pax-8 (Homo sapiens, UniProt Q06710); test: inhibitors of PAX8-driven TPO luciferase reporter, dose response, RMG-I cells, cherry-pick (AID 687027); type: functional, cell-based;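 note: luciferase reporter driven by Pax8 target thyroperoxidase promoter measured by SteadyGlo luminescence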
[15] = inhibitors of PGC1a acetylation in cells, dose response, cell-based, cherry-picked samples (AID 720514); type: functional;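 note: potency may reflect raised or lowered acetylation signal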
[16] = Luminescence Cell-Based Dose Response HTS to Identify Inhibitors of 5'UTR Stem-Loop Driven Prion Protein mRNA Translation in H4 Neuroglioblastoma Cells. [Related pubchem assays: 1827 (Project Summary), 1813 (Primary HTS)]; type: functional
[17] = microbe, parasite or virus in culture; type: functional; settings: Mycobacterium tuberculosis
[18] = growth suppression of PTEN-null colon cells, dose response, cell-based, HCT116 PTEN knockout (AID 1047); type: functional;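 note: HCT116 colon tumor cells with PTEN knocked out; cells exposed to compound for 60 hours before readout; potency for loss of cell viability measured by luminescence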
[19] = growth suppression of beta-catenin-knockout colon cells, dose response, cell-based, HCT116, human colon tumor (AID 1045); type: functional;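 note: HCT116 colon tumor cells with beta catenin knocked out; cells exposed to compound for 60 hours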
[20] = Luminescence Cell-Based Dose Retest to Confirm Inhibitors of Cancer Stem Cells. [Related pubchem assays (depositor defined):AID2717, AID2721]; type: functional; settings: Homo sapiens
[21] = inhibitors of HIV Env-driven cell fusion, dose response, cherry-pick (AID 652057); type: functional, cell-based
[22] = CEM21 lymphoblast cell cytotoxicity, dose response, cytotoxicity control for viral fusion inhibitor project, CellTiter-Glo luminescence, cherry-picked (AID 652042); type: functional, cell-based;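 note: potency for signal decrease meaning cytotoxicity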
[23] = ZM109 Env clade C HIV-1 fusion inhibitors, dose response, HeLa effector, CEM target cells, luciferase, cherry-pick (AID 652058); type: functional, cell-based
[24] = inhibitors of clade B AD8 Env fusion, dose response, cell-based, cherry-pick (AID 652062); type: functional;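 note: luciferase signal from cell-cell fusion driven by HIV-1 clade B AD8 Env; potency is for inhibitors of fusion seen as a drop in luminescence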
Kallikrein-7 = Kallikrein-7 (Homo sapiens, UniProt P49862); test: Fluorescence Intensity-based biochemical primary high throughput dose response assay to identify activators of kallikrein-7 (K7) zymogen.
Sequence of Kallikrein-7 (P49862 whole entry): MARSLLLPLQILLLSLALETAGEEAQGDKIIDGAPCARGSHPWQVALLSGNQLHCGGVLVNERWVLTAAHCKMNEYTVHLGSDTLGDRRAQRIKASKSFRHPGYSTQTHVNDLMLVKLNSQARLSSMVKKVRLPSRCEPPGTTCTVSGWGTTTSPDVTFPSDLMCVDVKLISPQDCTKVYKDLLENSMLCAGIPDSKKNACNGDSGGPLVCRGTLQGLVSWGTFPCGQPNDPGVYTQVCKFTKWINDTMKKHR

Sequence of Beta-galactosidase (Q8VNN2 whole entry): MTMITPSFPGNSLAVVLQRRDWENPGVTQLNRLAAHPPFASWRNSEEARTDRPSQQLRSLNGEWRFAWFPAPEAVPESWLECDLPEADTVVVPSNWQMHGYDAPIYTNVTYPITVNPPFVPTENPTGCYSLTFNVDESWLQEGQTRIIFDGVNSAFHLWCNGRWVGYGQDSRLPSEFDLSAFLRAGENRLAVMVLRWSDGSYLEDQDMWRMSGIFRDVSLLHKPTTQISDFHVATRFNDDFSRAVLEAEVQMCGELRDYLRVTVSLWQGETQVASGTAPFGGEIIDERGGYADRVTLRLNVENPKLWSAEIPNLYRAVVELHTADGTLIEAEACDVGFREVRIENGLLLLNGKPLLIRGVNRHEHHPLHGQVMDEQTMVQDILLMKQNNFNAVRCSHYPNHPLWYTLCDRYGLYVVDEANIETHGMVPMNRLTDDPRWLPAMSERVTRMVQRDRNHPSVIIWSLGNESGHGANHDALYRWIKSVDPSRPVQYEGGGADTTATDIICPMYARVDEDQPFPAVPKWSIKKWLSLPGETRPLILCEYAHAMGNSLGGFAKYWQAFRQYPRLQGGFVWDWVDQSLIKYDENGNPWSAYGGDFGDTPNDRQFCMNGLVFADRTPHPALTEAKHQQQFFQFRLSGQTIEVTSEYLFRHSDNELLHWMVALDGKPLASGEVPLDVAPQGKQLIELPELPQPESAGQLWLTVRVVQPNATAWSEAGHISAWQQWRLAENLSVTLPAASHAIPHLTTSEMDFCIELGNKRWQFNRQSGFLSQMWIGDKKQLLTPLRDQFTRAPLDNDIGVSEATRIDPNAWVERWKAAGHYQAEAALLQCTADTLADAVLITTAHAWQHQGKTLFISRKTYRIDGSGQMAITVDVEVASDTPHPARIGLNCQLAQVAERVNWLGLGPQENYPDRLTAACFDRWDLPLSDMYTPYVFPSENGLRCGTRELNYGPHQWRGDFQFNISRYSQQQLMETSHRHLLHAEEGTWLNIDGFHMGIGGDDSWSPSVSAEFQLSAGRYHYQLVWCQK
Sequence of Large T antigen (P03070 whole entry): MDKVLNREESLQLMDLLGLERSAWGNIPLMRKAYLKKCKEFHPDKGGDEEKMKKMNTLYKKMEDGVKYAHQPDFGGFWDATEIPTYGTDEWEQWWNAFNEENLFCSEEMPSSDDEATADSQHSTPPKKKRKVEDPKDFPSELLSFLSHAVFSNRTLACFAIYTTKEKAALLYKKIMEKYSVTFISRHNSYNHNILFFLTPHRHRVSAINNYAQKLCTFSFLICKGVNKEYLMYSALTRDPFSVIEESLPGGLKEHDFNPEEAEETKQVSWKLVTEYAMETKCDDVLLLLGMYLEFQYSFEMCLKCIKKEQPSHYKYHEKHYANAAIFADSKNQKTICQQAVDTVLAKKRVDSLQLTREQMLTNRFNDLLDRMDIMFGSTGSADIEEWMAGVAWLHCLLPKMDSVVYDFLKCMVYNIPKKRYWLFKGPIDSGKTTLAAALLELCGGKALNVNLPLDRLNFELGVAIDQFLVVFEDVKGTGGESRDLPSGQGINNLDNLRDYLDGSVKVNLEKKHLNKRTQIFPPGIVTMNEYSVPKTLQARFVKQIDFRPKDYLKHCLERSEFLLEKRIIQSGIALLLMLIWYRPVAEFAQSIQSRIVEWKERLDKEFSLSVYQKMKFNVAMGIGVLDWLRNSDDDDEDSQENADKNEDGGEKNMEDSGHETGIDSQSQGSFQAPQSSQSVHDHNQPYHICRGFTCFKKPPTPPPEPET
Sequence of FAD-linked sulfhydryl oxidase ALR (P55789 whole entry): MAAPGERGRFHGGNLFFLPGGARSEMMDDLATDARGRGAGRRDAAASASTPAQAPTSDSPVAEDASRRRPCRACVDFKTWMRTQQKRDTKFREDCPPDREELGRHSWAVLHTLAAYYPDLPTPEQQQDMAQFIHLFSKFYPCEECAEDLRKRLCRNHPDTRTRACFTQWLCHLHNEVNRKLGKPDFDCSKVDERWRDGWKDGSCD
Sequence of Paired box protein Pax-8 (Q06710 whole entry): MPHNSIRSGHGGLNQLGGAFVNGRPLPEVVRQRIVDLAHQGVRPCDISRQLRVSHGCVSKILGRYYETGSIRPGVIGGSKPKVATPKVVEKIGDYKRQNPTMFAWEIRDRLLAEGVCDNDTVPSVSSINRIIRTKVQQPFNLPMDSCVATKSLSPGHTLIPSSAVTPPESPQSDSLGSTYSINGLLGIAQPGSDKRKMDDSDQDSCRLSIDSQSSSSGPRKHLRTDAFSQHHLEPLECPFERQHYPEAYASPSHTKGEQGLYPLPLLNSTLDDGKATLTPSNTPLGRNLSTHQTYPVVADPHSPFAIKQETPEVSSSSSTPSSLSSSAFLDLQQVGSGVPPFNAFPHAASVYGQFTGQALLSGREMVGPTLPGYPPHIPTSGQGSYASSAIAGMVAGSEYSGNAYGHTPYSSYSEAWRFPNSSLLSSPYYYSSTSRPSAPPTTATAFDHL
Sequence of Eukaryotic translation initiation factor 4E (P63073 whole entry): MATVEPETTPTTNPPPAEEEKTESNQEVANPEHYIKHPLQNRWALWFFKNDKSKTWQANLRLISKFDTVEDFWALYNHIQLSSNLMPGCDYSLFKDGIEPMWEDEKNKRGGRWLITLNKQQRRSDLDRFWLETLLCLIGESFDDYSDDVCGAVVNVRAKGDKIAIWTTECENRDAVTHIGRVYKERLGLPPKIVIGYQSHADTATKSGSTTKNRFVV

For Cc1cc([N+](=O)[O-])ccc1NCc1ccc2c(c1)OCCO2, the IC50 [1] was 30.1 µM (active), the EC50 [2] was > 53 µM (inactive) and the IC50 [3] was 19.9 µM (active).

For O=C(Nc1cccc(F)c1)c1coc(=O)c(Br)c1, the IC50 [1] was 9.89 µM (active), the EC50 [2] was > 53 µM (inactive) and the IC50 [3] was 12.4 µM (active).

For CCOc1ccc(N(CC(=O)NCCOc2ccc(C)cc2)S(=O)(=O)c2ccccc2)cc1, the IC50 (Beta-galactosidase) was > 80 µM (inactive).

For O=C1CC(N2CCN(c3ccc(O)cc3)CC2)C(=O)N1Cc1cccs1 (centres undefined), the EC50 [4] was 6.78 µM (active), the IC50 (Large T antigen) was 5.41 µM (active) and the EC50 [5] was 12 µM (active). For the same compound, the AC50 [6] was 0.123 µM (active).

In the case of CCOC(=O)N1CCN(C(=O)CSc2ccc(Cl)cc2)CC1, the IC50 (Beta-galactosidase) is reported as > 80 µM (inactive).

For Fc1ccc(/N=c2\ssnc2Cl)c(F)c1, the IC50 [7] was 25.3 µM (active) and the IC50 [8] was 38.5 µM (inactive).

For Oc1nc2cc(/N=C/c3c(O)ccc4cc(Br)ccc34)ccc2[nH]1, the IC50 [7] was > 50 µM (not active), the EC50 [9] was > 99 µM (inactive) and the EC50 [10] was 5.48 µM (active).

In the case of C#CCN(C[C@@H]1[C@@H](OC(=O)NC2CCCC2)[C@@H](OC(=O)NC2CCCC2)Cn2c(=O)ccc(=O)n21)S(=O)(=O)c1ccc(C)cc1, the AC50 [11] is reported as 12.9 µM (active), the AC50 [12] is reported as 23.1 µM (active) and the AC50 [13] is reported as 14.4 µM (active). For the same compound, the IC50 [14] was 16.5 µM (inactive), the AC50 (Paired box protein Pax-8) was 6.12 µM (active) and the AC50 [15] was 3.87 µM (active).

For COc1ccc2c(C)nc(Nc3nc(C)c(C)c(O)n3)nc2c1, the EC50 [16] was > 120 µM (not active), the CC50 [17] was 7.44 µM (active) and the EC50 [18] was 5.4 µM (active). The EC50 [19] was 4.69 µM (active), the AC50 [20] was 6.84 µM (active) and the AC50 [21] was 10.3 µM (active). The AC50 [22] was 7.32 µM (active), the AC50 [23] was 2.84 µM (active) and the AC50 [24] was 8.79 µM (active).

For CCOC(=O)N1CCN(C(=O)COc2ccc3c(c2)C(=O)CC(C)(C)O3)CC1, the EC50 (Kallikrein-7) was > 69.5 µM (inactive).

In the case of O=C(Nc1ccc(NC(=O)c2ccccc2O)cc1)Nc1ccc(F)cc1F, the EC50 (Kallikrein-7) is reported as 9.78 µM (active).

Source: ChEMBL document CHEMBL1201862, “PubChem BioAssay data set” (2004)
